Measured values taken from patent publication US20250353891A1 (MEDIMMUNE LIMITED, priority 2022, published 2025).
pEC50: −log10 of the molar value. Starred links: 1 amine or outer side, 2 acyl side, 3 side chain; linkers in the order of their positions; H or OH if unused. Non-standard residues stand in square brackets, D forms with d. Residues, ends and D or L forms follow the SMILES beside them. Groups on a side chain read outwards from the residue. *: point of attachment. C20 diacid = O=C(O)CCCCCCCCCCCCCCCCCCC(=O)*; C18 diacid = O=C(O)CCCCCCCCCCCCCCCCC(=O)*; γGlu = O=C(O)[C@H](CCC(=O)[*:2])N[*:1]; αMeF = C[C@](N)(Cc1ccccc1)C(=O)O; NMeQ = CN[C@@H](CCC(N)=O)C(=O)O; αMeQ = C[C@](N)(CCC(N)=O)C(=O)O; Ac4c = NC1(C(=O)O)CCC1; AEEA = NCCOCCOCC(=O)O; Ac3c = NC1(C(=O)O)CC1; Aib = CC(C)(N)C(=O)O

Tests used:
[1] = target: human GLP-1 receptor (hGLP-1R) (Homo sapiens, UniProt P43220); assay: cAMP production (HTRF) in CHO cells expressing hGLP-1R; type: cell-based; design: expressed in transfected cells; details: for pEC50: Table 7, peptides modified at position 20, cAMP in CHO hGLP-1R cells, geometric mean, read-out: hGLP-1R EC50; for % Relative Potency Ratio: Table 7, % GLP-1R activity relative to GLP-1 / % GlucR activity relative to glucagon
Chain of human GLP-1 receptor (hGLP-1R) (P43220 24-463): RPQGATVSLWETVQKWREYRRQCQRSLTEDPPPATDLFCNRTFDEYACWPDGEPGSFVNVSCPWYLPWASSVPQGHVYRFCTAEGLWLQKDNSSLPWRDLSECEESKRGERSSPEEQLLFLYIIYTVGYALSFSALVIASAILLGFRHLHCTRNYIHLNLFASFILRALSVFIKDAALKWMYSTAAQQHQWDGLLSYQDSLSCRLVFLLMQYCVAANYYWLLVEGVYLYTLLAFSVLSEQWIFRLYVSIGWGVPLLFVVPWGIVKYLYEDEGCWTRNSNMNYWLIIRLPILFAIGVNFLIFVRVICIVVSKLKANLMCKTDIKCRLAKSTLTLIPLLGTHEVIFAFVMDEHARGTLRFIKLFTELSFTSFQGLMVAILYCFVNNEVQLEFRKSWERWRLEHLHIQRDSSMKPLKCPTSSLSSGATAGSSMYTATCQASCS
How it was run: (§1)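 Potency values represent EC50 from 4-parameter logistic curves of HTRF % Delta F signal. Receptor-expressing CHO cells (hGCGR 2×10^5 cells/mL, hGLP-1R 1×10^5 cells/mL) were exposed for 30 min at room temperature before two-step cAMP detection.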

[2] = target: human glucagon receptor (hGCGR) (Homo sapiens, UniProt P47871); assay: cAMP production (HTRF) in CHO cells expressing hGCGR; type: cell-based; design: expressed in transfected cells; details: Table 7, peptides modified at position 20; cAMP in CHO hGCGR cells; geometric mean; read-out: hGluc-R EC50
Chain of human glucagon receptor (hGCGR) (P47871 26-477): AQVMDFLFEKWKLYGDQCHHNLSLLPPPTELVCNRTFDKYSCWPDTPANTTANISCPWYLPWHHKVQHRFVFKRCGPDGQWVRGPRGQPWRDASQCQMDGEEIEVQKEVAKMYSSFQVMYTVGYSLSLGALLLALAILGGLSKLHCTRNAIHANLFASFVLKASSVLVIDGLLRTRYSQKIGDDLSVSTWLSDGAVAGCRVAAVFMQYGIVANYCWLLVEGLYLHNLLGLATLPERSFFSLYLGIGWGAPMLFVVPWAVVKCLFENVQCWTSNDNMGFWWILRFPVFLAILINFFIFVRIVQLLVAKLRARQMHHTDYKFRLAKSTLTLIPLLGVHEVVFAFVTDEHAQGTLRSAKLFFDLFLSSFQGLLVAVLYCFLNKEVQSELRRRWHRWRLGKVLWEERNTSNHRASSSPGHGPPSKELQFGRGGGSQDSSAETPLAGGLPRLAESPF
How it was run: as §1

What does the source list for `CC[C@H](C)[C@H](NC(=O)C(C)(C)NC(=O)[C@H](CCC(N)=O)NC(=O)[C@@H](NC(=O)[C@](C)(Cc1ccccc1)NC(=O)[C@H](CC(=O)O)NC(=O)[C@H](CCCCNC(=O)COCCOCCNC(=O)COCCOCCNC(=O)CC[C@H](NC(=O)CCCCCCCCCCCCCCCCC(=O)O)C(=O)O)NC(=O)[C@H](C)NC(=O)[C@H](C)NC(=O)[C@H](CCCNC(=N)N)NC(=O)[C@H](CO)NC(=O)[C@H](CC(=O)O)NC(=O)[C@H](CC(C)C)NC(=O)[C@](C)(Cc1ccccc1)NC(=O)[C@H](CCCCN)NC(=O)[C@H](CO)NC(=O)[C@@H](NC(=O)[C@H](CC(=O)O)NC(=O)[C@H](CO)NC(=O)[C@@H](NC(=O)[C@](C)(Cc1ccccc1)NC(=O)[C@H](CO)NC(=O)CNC(=O)[C@H](CCC(N)=O)NC(=O)C(C)(C)NC(=O)[C@@H](N)Cc1c[nH]cn1)[C@@H](C)O)C(C)C)C(C)C)C(=O)N[C@@H](C)C(=O)N[C@@H](CC(N)=O)C(=O)N[C@H](C(N)=O)[C@@H](C)O` [Peptide 321] (H-H[Aib]QGS[αMeF]TSDVSK[αMeF]LDSRAAK([AEEA-AEEA-γGlu-C18 diacid])D[αMeF]VQ[Aib]IANT-NH2)?
pEC50 [1]: 10.65; % Relative Potency Ratio [1]: 384.7; pEC50 [2]: 8.36

With `CC[C@H](C)[C@H](NC(=O)C(C)(C)NC(=O)[C@H](CCC(N)=O)NC(=O)[C@@H](NC(=O)[C@](C)(Cc1ccccc1)NC(=O)[C@H](CC(=O)O)NC(=O)[C@H](CCCCNC(=O)COCCOCCNC(=O)COCCOCCNC(=O)CC[C@H](NC(=O)CC[C@H](NC(=O)CCCCCCCCCCCCCCCCCCC(=O)O)C(=O)O)C(=O)O)NC(=O)[C@H](C)NC(=O)[C@H](C)NC(=O)[C@H](CCCNC(=N)N)NC(=O)[C@H](CO)NC(=O)[C@H](CC(=O)O)NC(=O)[C@H](CC(C)C)NC(=O)[C@](C)(Cc1ccccc1)NC(=O)[C@H](CCCCN)NC(=O)[C@H](CO)NC(=O)[C@@H](NC(=O)[C@H](CC(=O)O)NC(=O)[C@H](CO)NC(=O)[C@@H](NC(=O)[C@](C)(Cc1ccccc1)NC(=O)[C@H](CO)NC(=O)CNC(=O)[C@H](CCC(N)=O)NC(=O)C(C)(C)NC(=O)[C@@H](N)Cc1c[nH]cn1)[C@@H](C)O)C(C)C)C(C)C)C(=O)N[C@@H](C)C(=O)N[C@@H](CC(N)=O)C(=O)N[C@H](C(N)=O)[C@@H](C)O` [Peptide 322] (H-H[Aib]QGS[αMeF]TSDVSK[αMeF]LDSRAAK([AEEA-AEEA-γGlu-γGlu-C20 diacid])D[αMeF]VQ[Aib]IANT-NH2) as the compound, how does the pEC50 [1] read?
The pEC50 was 10.17.

What about the pEC50 [2] of the same compound?
The pEC50 was less than 7.61.

`CC[C@H](C)[C@H](NC(=O)C(C)(C)NC(=O)[C@H](CCC(N)=O)NC(=O)[C@@H](NC(=O)[C@](C)(Cc1ccccc1)NC(=O)[C@H](CC(=O)O)NC(=O)[C@H](CCCCNC(=O)COCCOCCNC(=O)COCCOCCNC(=O)CC[C@H](NC(=O)CCCCCCCCCCCCCCCCC(=O)O)C(=O)O)NC(=O)[C@H](C)NC(=O)[C@H](C)NC(=O)[C@H](CCCNC(=N)N)NC(=O)[C@H](CO)NC(=O)[C@H](CC(=O)O)NC(=O)[C@H](CC(C)C)NC(=O)[C@](C)(Cc1ccccc1)NC(=O)[C@H](CCCCN)NC(=O)[C@H](CO)NC(=O)[C@@H](NC(=O)[C@H](CC(=O)O)NC(=O)[C@H](CO)NC(=O)[C@@H](NC(=O)[C@](C)(Cc1ccccc1)NC(=O)[C@H](CO)NC(=O)CNC(=O)[C@](C)(CCC(N)=O)NC(=O)[C@H](CO)NC(=O)[C@@H](N)Cc1c[nH]cn1)[C@@H](C)O)C(C)C)C(C)C)C(=O)N[C@@H](C)C(=O)N[C@@H](CC(N)=O)C(=O)N[C@H](C(N)=O)[C@@H](C)O` [Peptide 323] (H-HS[αMeQ]GS[αMeF]TSDVSK[αMeF]LDSRAAK([AEEA-AEEA-γGlu-C18 diacid])D[αMeF]VQ[Aib]IANT-NH2) was tested. Which pEC50 [1] did it give?
The pEC50 was 7.94.

What about the pEC50 [2] of the same compound?
The pEC50 was less than 7.59.

`CC[C@H](C)[C@H](NC(=O)C(C)(C)NC(=O)[C@H](CCC(N)=O)NC(=O)[C@@H](NC(=O)[C@](C)(Cc1ccccc1)NC(=O)[C@H](CC(=O)O)NC(=O)[C@H](CCCCNC(=O)COCCOCCNC(=O)COCCOCCNC(=O)CC[C@H](NC(=O)CCCCCCCCCCCCCCCCC(=O)O)C(=O)O)NC(=O)[C@H](C)NC(=O)[C@H](C)NC(=O)[C@H](CCCNC(=N)N)NC(=O)[C@H](CO)NC(=O)[C@H](CC(=O)O)NC(=O)[C@H](CC(C)C)NC(=O)[C@](C)(Cc1ccccc1)NC(=O)[C@H](CCCCN)NC(=O)[C@H](CO)NC(=O)[C@@H](NC(=O)[C@H](CC(=O)O)NC(=O)[C@H](CO)NC(=O)[C@@H](NC(=O)[C@](C)(Cc1ccccc1)NC(=O)[C@H](CO)NC(=O)CNC(=O)[C@H](CCC(N)=O)N(C)C(=O)[C@H](CO)NC(=O)[C@@H](N)Cc1c[nH]cn1)[C@@H](C)O)C(C)C)C(C)C)C(=O)N[C@@H](C)C(=O)N[C@@H](CC(N)=O)C(=O)N[C@H](C(N)=O)[C@@H](C)O` [Peptide 325] (H-HS[NMeQ]GS[αMeF]TSDVSK[αMeF]LDSRAAK([AEEA-AEEA-γGlu-C18 diacid])D[αMeF]VQ[Aib]IANT-NH2) was tested. Which pEC50 [1] did it give?
Its pEC50 is 9.03.

What about the pEC50 [2] of the same compound?
The pEC50 was less than 7.59.

What does the source list for `CC[C@H](C)[C@H](NC(=O)C(C)(C)NC(=O)[C@H](CCC(N)=O)NC(=O)[C@@H](NC(=O)[C@](C)(Cc1ccccc1)NC(=O)[C@H](CC(=O)O)NC(=O)[C@H](CCCCNC(=O)COCCOCCNC(=O)COCCOCCNC(=O)CC[C@H](NC(=O)CCCCCCCCCCCCCCCCC(=O)O)C(=O)O)NC(=O)[C@H](C)NC(=O)[C@H](C)NC(=O)[C@H](CCCNC(=N)N)NC(=O)[C@H](CO)NC(=O)[C@H](CC(=O)O)NC(=O)[C@H](CC(C)C)NC(=O)[C@](C)(Cc1ccccc1)NC(=O)[C@H](CCCCN)NC(=O)[C@H](CO)NC(=O)[C@@H](NC(=O)[C@H](CC(=O)O)NC(=O)[C@H](CO)NC(=O)[C@@H](NC(=O)[C@](C)(Cc1ccccc1)NC(=O)[C@H](CO)NC(=O)CNC(=O)[C@@H](CCC(N)=O)NC(=O)[C@H](CO)NC(=O)[C@@H](N)Cc1c[nH]cn1)[C@@H](C)O)C(C)C)C(C)C)C(=O)N[C@@H](C)C(=O)N[C@@H](CC(N)=O)C(=O)N[C@H](C(N)=O)[C@@H](C)O` [Peptide 326] (H-HS[dQ]GS[αMeF]TSDVSK[αMeF]LDSRAAK([AEEA-AEEA-γGlu-C18 diacid])D[αMeF]VQ[Aib]IANT-NH2)?
pEC50 [1]: 8.17; pEC50 [2]: < 7.59

What does the source list for `CC[C@H](C)[C@H](NC(=O)C(C)(C)NC(=O)[C@H](CCC(N)=O)NC(=O)[C@@H](NC(=O)[C@](C)(Cc1ccccc1)NC(=O)[C@H](CC(=O)O)NC(=O)[C@H](CCCCNC(=O)COCCOCCNC(=O)COCCOCCNC(=O)CC[C@H](NC(=O)CCCCCCCCCCCCCCCCC(=O)O)C(=O)O)NC(=O)[C@H](C)NC(=O)[C@H](C)NC(=O)[C@H](CCCNC(=N)N)NC(=O)[C@H](CO)NC(=O)[C@H](CC(=O)O)NC(=O)[C@H](CC(C)C)NC(=O)[C@](C)(Cc1ccccc1)NC(=O)[C@H](CCCCN)NC(=O)[C@H](CO)NC(=O)[C@@H](NC(=O)[C@H](CC(=O)O)NC(=O)[C@H](CO)NC(=O)[C@@H](NC(=O)[C@](C)(Cc1ccccc1)NC(=O)[C@H](CO)NC(=O)CNC(=O)[C@H](CCC(N)=O)NC(=O)C1(NC(=O)[C@@H](N)Cc2c[nH]cn2)CC1)[C@@H](C)O)C(C)C)C(C)C)C(=O)N[C@@H](C)C(=O)N[C@@H](CC(N)=O)C(=O)N[C@H](C(N)=O)[C@@H](C)O` [Peptide 327] (H-H[Ac3c]QGS[αMeF]TSDVSK[αMeF]LDSRAAK([AEEA-AEEA-γGlu-C18 diacid])D[αMeF]VQ[Aib]IANT-NH2)?
pEC50 [1]: 10.52; pEC50 [2]: < 7.59

What does the source list for `CC[C@H](C)[C@H](NC(=O)C(C)(C)NC(=O)[C@H](CCC(N)=O)NC(=O)[C@@H](NC(=O)[C@](C)(Cc1ccccc1)NC(=O)[C@H](CC(=O)O)NC(=O)[C@H](CCCCNC(=O)COCCOCCNC(=O)COCCOCCNC(=O)CC[C@H](NC(=O)CCCCCCCCCCCCCCCCC(=O)O)C(=O)O)NC(=O)[C@H](C)NC(=O)[C@H](C)NC(=O)[C@H](CCCNC(=N)N)NC(=O)[C@H](CO)NC(=O)[C@H](CC(=O)O)NC(=O)[C@H](CC(C)C)NC(=O)[C@](C)(Cc1ccccc1)NC(=O)[C@H](CCCCN)NC(=O)[C@H](CO)NC(=O)[C@@H](NC(=O)[C@H](CC(=O)O)NC(=O)[C@H](CO)NC(=O)[C@@H](NC(=O)[C@](C)(Cc1ccccc1)NC(=O)[C@H](CO)NC(=O)CNC(=O)[C@H](CCC(N)=O)NC(=O)C1(NC(=O)[C@@H](N)Cc2c[nH]cn2)CCC1)[C@@H](C)O)C(C)C)C(C)C)C(=O)N[C@@H](C)C(=O)N[C@@H](CC(N)=O)C(=O)N[C@H](C(N)=O)[C@@H](C)O` [Peptide 328] (H-H[Ac4c]QGS[αMeF]TSDVSK[αMeF]LDSRAAK([AEEA-AEEA-γGlu-C18 diacid])D[αMeF]VQ[Aib]IANT-NH2; N-terminus assumed)?
pEC50 [1]: 10.81; % Relative Potency Ratio [1]: 218.8; pEC50 [2]: 8.77

With `CC[C@H](C)[C@H](NC(=O)C(C)(C)NC(=O)[C@H](CCC(N)=O)NC(=O)[C@@H](NC(=O)[C@](C)(Cc1ccccc1)NC(=O)[C@H](CC(=O)O)NC(=O)[C@H](CCCCNC(=O)COCCOCCNC(=O)COCCOCCNC(=O)CC[C@H](NC(=O)CCCCCCCCCCCCCCCCC(=O)O)C(=O)O)NC(=O)[C@H](C)NC(=O)[C@H](C)NC(=O)[C@H](CCCNC(=N)N)NC(=O)[C@H](CO)NC(=O)[C@H](CC(=O)O)NC(=O)[C@H](CC(C)C)NC(=O)[C@](C)(Cc1ccccc1)NC(=O)[C@H](CCCCN)NC(=O)[C@H](CO)NC(=O)[C@@H](NC(=O)[C@H](CC(=O)O)NC(=O)[C@H](CO)NC(=O)[C@@H](NC(=O)[C@](C)(Cc1ccccc1)NC(=O)[C@H](CO)NC(=O)CNC(=O)[C@H](CCC(N)=O)NC(=O)[C@@H](CO)NC(=O)[C@@H](N)Cc1c[nH]cn1)[C@@H](C)O)C(C)C)C(C)C)C(=O)N[C@@H](C)C(=O)N[C@@H](CC(N)=O)C(=O)N[C@H](C(N)=O)[C@@H](C)O` [Peptide 330] (H-H[dS]QGS[αMeF]TSDVSK[αMeF]LDSRAAK([AEEA-AEEA-γGlu-C18 diacid])D[αMeF]VQ[Aib]IANT-NH2) as the compound, how does the pEC50 [1] read?
The pEC50 was 9.31.

And the pEC50 [2]?
The pEC50 was less than 7.59.
